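How tested: cells in 96-well plates exposed to compound for 48 hours at five concentrations. The concentration for 50% growth inhibition is given as GI50. Definition used: TGI = concentration required for complete inhibition of growth.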
How the values were obtained:
Assay in all cases: inhibition of tumour cell growth, NCI panel, 48 h
[1] = system: EKVX NSCLC
[2] = system: HCT-116 colon
[3] = system: KM12 colon
[4] = system: NCI-H226 lung
[5] = system: OVCAR-5 ovarian
[6] = system: OVCAR-8 ovarian
[7] = system: SK-MEL-28 melanoma
[8] = system: SNB-75 CNS
[9] = system: UACC-257 melanoma

In the case of `C=C(CO)CC(/C=C(\C)CC/C=C(\C)CCl)OC(C)=O` (stereo unspecified), the TGI [1] is reported as over 100 µM, the TGI [2] is reported as over 100 µM and the TGI [3] is reported as over 100 µM. For the same compound, the TGI [4] was over 100 µM, the TGI [5] was over 100 µM and the TGI [6] was over 100 µM. It also gave a TGI [7] of over 100 µM and a TGI [8] of over 100 µM.

`O=c1[nH]c(=O)n(C2CC(O)C(CO)O2)cc1COCC(F)(F)F` (stereo unspecified) gave a TGI [1] of over 100 µM, a TGI [3] of over 100 µM and a TGI [5] of over 100 µM. The TGI [6] was over 100 µM, the TGI [8] was over 100 µM and the TGI [9] was over 100 µM.

In the case of `O=C([CH-]C(=O)c1ccccc1)c1ccccc1.O=C([CH-]C(=O)c1ccccc1)c1ccccc1.O=C([CH-]C(=O)c1ccccc1)c1ccccc1.[Cl-].[Zr+4]`, the GI50 [1] is reported as 4030 nM, the TGI [1] is reported as 26.8 µM and the GI50 [3] is reported as 12400 nM. The TGI [3] was 56.6 µM, the GI50 [5] was 53800 nM and the TGI [5] was over 100 µM. It also gave a GI50 [7] of 13.2 µM, a TGI [7] of 36.7 µM and a GI50 [8] of 3340 nM. It also gave a TGI [8] of 30.1 µM, a GI50 [9] of 17.2 µM and a TGI [9] of 73.1 µM.

Compound `CCC[CH2][Sn]([CH2]CCC)([O]C(=O)c1cccc(F)c1F)[O]C(=O)c1cccc(F)c1F` has a GI50 [1] of 1410 nM, a TGI [1] of 2.71 µM and a GI50 [2] of 1200 nM. It also gave a TGI [2] of 2.43 µM, a GI50 [3] of 1520 nM and a TGI [3] of 2.85 µM. For the same compound, the GI50 [4] was 1250 nM, the TGI [4] was 2.52 µM and the GI50 [5] was 1880 nM. It also gave a TGI [5] of 3.28 µM, a GI50 [6] of 1300 nM and a TGI [6] of 2.57 µM. For the same compound, the GI50 [7] was 0.933 µM, the TGI [7] was 2.13 µM and the GI50 [8] was 874 nM. The TGI [8] was 2.1 µM, the GI50 [9] was 1.09 µM and the TGI [9] was 2.28 µM.

`c1ccc(C2CC(c3ccc4ccccc4c3)=Nc3ccccc3S2)cc1` (stereo unspecified) was tested, and the TGI [1] was 50.7 µM, the TGI [2] was 30 µM and the TGI [3] was 38.8 µM. For the same compound, the TGI [4] was 42.7 µM, the TGI [5] was 37.6 µM and the TGI [6] was 29.9 µM. The TGI [7] was 33.1 µM, the TGI [8] was 40.4 µM and the TGI [9] was 34.9 µM.

`O=C1C=C(Nc2ccc(S(=O)(=O)Nc3ncccn3)cc2)c2ccccc2C1=O` was tested, and the TGI [1] was 67.1 µM, the TGI [2] was 35.9 µM and the TGI [3] was 38.6 µM. For the same compound, the TGI [4] was 56.8 µM, the TGI [5] was 34.4 µM and the TGI [6] was 42.4 µM. The TGI [7] was 60.6 µM, the TGI [8] was 59.4 µM and the TGI [9] was 41.7 µM.

`Clc1ccc(OCc2nnc3n2N=C(c2ccccc2)CS3)c(Cl)c1` was tested, and the TGI [2] was over 100 µM, the TGI [3] was over 100 µM and the TGI [4] was over 100 µM. It also gave a TGI [5] of over 100 µM, a TGI [6] of over 100 µM and a TGI [7] of over 100 µM. For the same compound, the TGI [8] was 19.6 µM and the TGI [9] was over 100 µM.

In the case of `C=Cc1c(C)c2cc3[nH]c(cc4nc(cc5nc(cc1[nH]2)C(C)=C5CCC(=O)N(CC)CC)C(CCC(=O)N(CC)CC)=C4C)c(C)c3C=C`, the TGI [1] is reported as over 100 µM, the TGI [2] is reported as over 100 µM and the TGI [3] is reported as over 100 µM. For the same compound, the TGI [5] was over 100 µM, the TGI [6] was over 100 µM and the TGI [7] was over 100 µM. For the same compound, the TGI [8] was 88.3 µM and the TGI [9] was over 100 µM.

In the case of `COC(=O)CC(=O)NCC1=CCC(=O)CC1`, the TGI [1] is reported as over 100 µM, the TGI [2] is reported as over 100 µM and the TGI [3] is reported as over 100 µM. The TGI [6] was over 100 µM, the TGI [7] was over 100 µM and the TGI [8] was over 100 µM. The TGI [9] was over 100 µM.

With `NC(=S)N/N=C1/CN(c2ccc(Cl)c(Cl)c2)CC(=O)C1c1nc2ccccc2s1` (stereo unspecified) the TGI [1] was over 100 µM, the TGI [2] was over 100 µM and the TGI [3] was over 100 µM. The TGI [4] was over 100 µM, the TGI [5] was over 100 µM and the TGI [6] was over 100 µM. For the same compound, the TGI [7] was over 100 µM, the TGI [8] was over 100 µM and the TGI [9] was over 100 µM.

For `CC1=C(C(=O)Nc2ccccc2)C(c2cc(Cl)cc(Cl)c2)C(C(=O)Nc2ccccc2)=C(C)N1`, the TGI [1] was 41.3 µM, the TGI [2] was 21.6 µM and the TGI [3] was 16.8 µM. It also gave a TGI [4] of 31.6 µM, a TGI [5] of 39 µM and a TGI [6] of 43.5 µM. It also gave a TGI [7] of 30.2 µM, a TGI [8] of 34 µM and a TGI [9] of 27.2 µM.

`CC(C)C(=S)N(C)O` gave a TGI [1] of over 100 µM, a TGI [2] of 19.9 µM and a TGI [3] of over 72.9 µM. It also gave a TGI [4] of over 100 µM, a TGI [5] of over 100 µM and a TGI [6] of over 100 µM. For the same compound, the TGI [7] was over 100 µM, the TGI [8] was over 100 µM and the TGI [9] was over 100 µM.

For `C1CC2=C(C1)C1=S(S2)SC2=C1CCC2`, the TGI [1] was over 100 µM, the TGI [2] was over 100 µM and the TGI [3] was over 100 µM. It also gave a TGI [4] of over 100 µM, a TGI [5] of over 100 µM and a TGI [6] of over 100 µM. For the same compound, the TGI [7] was over 100 µM, the TGI [8] was over 100 µM and the TGI [9] was over 100 µM.

With `c1cc[c]([Sn]([O]c2cccc3cccnc23)([O]c2cccc3cccnc23)[c]2ccccc2)cc1` the GI50 [1] was 1430 nM, the TGI [1] was 3.07 µM and the GI50 [2] was 199 nM. It also gave a TGI [2] of 0.393 µM, a GI50 [6] of 294 nM and a TGI [6] of 0.859 µM. For the same compound, the GI50 [8] was 419 nM and the TGI [8] was 1.45 µM.

`O=C(/C(=N/Nc1ccccc1)c1ccc([N+](=O)[O-])cc1)c1ccc([N+](=O)[O-])cc1` gave a TGI [1] of over 100 µM, a TGI [2] of over 100 µM and a TGI [3] of over 100 µM. It also gave a TGI [5] of over 100 µM, a TGI [6] of over 100 µM and a TGI [7] of over 100 µM. For the same compound, the TGI [8] was over 100 µM and the TGI [9] was over 100 µM.

In the case of `CC(=O)O[C@H](C[C@H](C(C)C)N(C)C(=O)[C@@H](NC(=O)[C@H]1CCCCN1C)C(C)C)c1cccc(C(=O)N[C@@H](Cc2ccccc2)C[C@H](C)C(=O)O)n1`, the GI50 [1] is reported as 255 nM, the TGI [1] is reported as over 25 µM and the GI50 [2] is reported as 22.2 nM. It also gave a TGI [2] of over 8.59 µM, a GI50 [3] of 26.2 nM and a TGI [3] of over 25 µM. It also gave a GI50 [4] of 67 nM, a TGI [4] of 5.36 µM and a GI50 [5] of 248 nM. It also gave a TGI [5] of over 25 µM, a GI50 [6] of 47.5 nM and a TGI [6] of over 25 µM. For the same compound, the GI50 [8] was 6.95 nM and the TGI [8] was over 25 µM.

Source: PubChem BioAssay (NCI)
